Measurements: patent US20100061945A1, “Use Of Quinoa Extract As Cosmetic And Pharmaceutic Slimming Agent And/Or As An Agent Preventing The Formation Of New Fats In The Human Body” (Societe D'Exploitation Des Produits Pour Les Indus tries …, priority 2006, published 2010)

Legend:
normal human adipocytes = assay: Lipolytic activity in isolated normal human adipocytes by assaying the free fatty acids; format: cell-based; details: incubation concentration 0.0001 weight % DE, two hours at 37° C.
[1] = system: murine preadipocytes (3T3-L1 line); assay: Differentiation of preadipocytes to adipocytes, G6PDH activity assay; format: cell-based; details: incubation concentration 0.0000001 weight % DE (1 ng/ml)
Procedure: 1—Principle of the Method • The method described consists in incubating the product in the presence of murine preadipocytes (3T3-L1 line) which, under the influence of an appropriate culture medium, differentiate into mature adipocytes capable of storing triglycerides. The differentiation is evaluated by an enzymatic assay of Glucose-6-phosphate dehydrogenase (G6PDH). This enzyme, which is located within the adipocytes, allows the conversion of Glucose-6-phosphate to Gluconate-6-phosphate in the presence of Nicotinamide Adenine Dinucleotide Phosphate (NAPD) and leads to the formation of Hydrogenated Nicotinamide Adenine Dinucleotide Phosphate (NAPDH) used for the neosynthesis of fatty acids. It is present in the mature adipocytes. The formation of NAPDH is monitored by absorption spectrophotometry at 340 nanometers.
2—Experimental Protocol • (i)—Cellular model: The test is carried out using murine preadipocytes (3T3-L1 cell line) cultured in a monolayer until confluence is obtained. […] The G6PDH activity of the cellular lyzates is measured by adding its substrate, D-glucose 6P (1 mmol) and its cofactor NADP (8 mmol). The kinetics of appearance of NAPDH is measured by spectrophotometry at 340 nm for 2 minutes. […]

| Compound | Lipolytic activity (compared with the control = 100) (normal human adipocytes) | Free fatty acid concentration (normal human adipocytes; mean of five assays, control 16 ± 3) [µmol] | % inhibition (differentiation of the preadipocytes) [1] [%] | G6PDH ([1]; differentiated control 0.46 ± 0.03, undifferentiated control 0.03 ± 0.002) [U/ml] |
| --- | --- | --- | --- | --- |
| Cn1c(=O)c2c(ncn2C)n(C)c1=O [Caffeine, 1,3,7-trimethyl-xanthine] | 154 | 25 ± 4 | – | – |
| TNFα | – | – | 43 | 0.005 ± 0.01 |
